Patent US20250114313A1, “OLIGO-BENZAMIDE ANALOGS AND THEIR USE IN CANCER TREATMENT” (BOARD OF REGENTS, THE UNIVERSITY OF TEXAS SYSTEM, priority 2022, published 2025)

Assays:
TNBC cells (MDA-MB-231) = test: Live cell imaging with SYTOX Green, cell death in TNBC cells; type: cell-based, Human; conditions: within 30 hours of treatment; control <1%
Procedure: Live cell imaging: Live cell images were acquired by Lionheart FX automated microscope (BioTek). Cells were plated one day before the experiment. For cell death assay, 0.2 μM SYTOX Green was added into the plate 15 min before the experiment.

[1] = tested on: 21 human preclinical TNBC cell line models; test: WST-1 assay, TNBC cell lines; type: cell-based; conditions: 21 TNBC cell lines, all six molecular subtypes, read-out: anti-proliferative IC50, WST-1
Procedure: (§1) Cell viability assays: Cells were seeded in 96-well plates (2×10^3 cells/well) one day before the treatment. Cells were treated with varying concentrations of ERX-41 or ERX-11 analogs for 3-6 days. Then effects of ERX-41 or ERX-11 analogs on cell viability were measured in triplicate or sextuplicate with multiple biological replicates using the WST-1 (Promega), MTT as previously described^33 or CellTiter-Glo 2.0 (Promega) assays.

ERα-positive cell lines = test: CellTiter-Glo assay, ERα-positive cell lines; type: cell-based; conditions: Homo sapiens, read-out: anti-proliferative IC50, CellTiter-Glo
Procedure: as §1

HMEC cells = test: Western blotting (UPR proteins, puromycin labeled nascent proteins), HMEC; type: cell-based, human; conditions: 1 μM
[2] = tested on: parental SUM-159 xenografts; test: Parental SUM-159 xenografts; type: in vivo, SCID mice
Procedure: (§2) Knockout studies: For xenograft knockout tumor models, 1.8×10^6SUM159 parental, or 1.8×10^6SUM159-LIPA KO cells were harvested with 1% trypsin-EDTA, washed and resuspended in sterile PBS. Cells were initially implanted into the mammary fat pads of six-week-old female C.B-17 (SCID) mice purchased from Envigo (Indianapolis, IN, USA). Mice were monitored twice weekly for tumor growth measured by Vernier calipers where tumor volume was calculated by the formula (length×width^2)/2. Tumors were dissected into 2 mm cubes when they reached 800 mm^3 in size and subsequently implanted into the mammary fat pad of twelve SCID female mice. Once tumor fragments reached 150 mm^3 in size, mice were randomly divided into vehicle group (n=6, control, 0.3% Hydroxy cellulose, i.p.) and treatment group (n=6, ERX-41, 10 mg/kg/day/i.p.). Institutional guidelines were followed to determine experimental end points.

[3] = tested on: SUM-159 LIPA KO xenografts; test: SUM-159 LIPA KO xenografts; type: in vivo, SCID mice; conditions: i.p., 10 mg/kg/day
Procedure: as §2

SUM-159 cells = test: Airyscan / live cell confocal imaging of ER tubule width, SUM-159 mCherry-RAMP4; type: cell-based, Human
Procedure: Live cell confocal and Airyscan imaging: To visualize ER structure, stable SUM-159 cell lines expressing mCherry-RAMP4 were established. pLenti-X1-hygro-mCherry-RAMP4 was purchased from Addgene (Addgene #118391; //n2t.net/addgene:118391; RRID:Addgene_118391) (via Jacob Corn).^35 The live cell images were acquired by Confocal Zeiss LSM880 Airyscan. ER tubule width was calculated by drawing 1px-wide line scans perpendicular to the long axis of individual ER tubules. In MATLAB, the peak intensity along each line scan was determined and the distance between the half maximum intensity on either side of the peak was measured. The code for this analysis is available at: //github.com/andmoo91/HalfMaxScript.

[4] = parental SUM-159, 1 μM, from ~200 nm

CC(C)COc1cc(C(=O)Nc2ccc(C(=O)N[C@H]3CC[C@H](C)CC3)cc2OCC(C)C)ccc1NC(=O)c1ccc([N+](=O)[O-])c(OCCO)c1 [ERX-41]
cells dead (TNBC cells (MDA-MB-231)): > 90% | IC50 [1]: < 500 nM | IC50 (ERα-positive cell lines): 100 to 125 nM | global de novo protein synthesis in HMEC (HMEC cells): not HMEC cells | induction of ER stress / UPR proteins in HMEC (HMEC cells): not in HMEC cells | Ki67 staining, parental xenografts ([2]; at sacrifice): decrease in Ki67 staining | response of parental xenografts ([2]; i.p., 10 mg/kg/day): responded significantly | response of LIPA KO xenografts [3]: did not respond | ER tubule width, mean±S.D., airyscan (SUM-159 cells; 1 μM, 2 h, 0 h = 260±80 nm): 660±320 nm | measured ER dilation following treatment (SUM-159 cells; discussion): ~600 nm | ER tubule diameter, live cell confocal, 2 h (SUM-159 cells; [4]): ~500 nm | ER tubule diameter, live cell confocal, 4 h (SUM-159 cells; [4]): ~620 nm
